Data as given in patent publication US20160083397A1, “PARTHENOLIDE DERIVATIVES AND THEIR MODULATION OF PROCESSES CONTROLLED BY REGULATED TRANSLATION” (THE BOARD OF TRUSTEES OF THE UNIVERSITY OF ARKANSAS, priority 2013, published 2016).
Several values for one entry are separate records, joined by “and”; a condition that tells them apart may be missing. Identical values can stand only once.

Legend:
SF-295 = conditions: for GI50: SF-295, CNS Cancer
OVCAR-4 = conditions: for GI50: OVCAR-4, Ovarian Cancer
SW-620 = conditions: for GI50: SW-620, Colon Cancer
PC-3 = conditions: for GI50: PC-3, Prostate Cancer
SNB-75 = conditions: for GI50: SNB-75, CNS Cancer
UO-31 = conditions: for GI50: UO-31, Renal Cancer
CCRF-CEM = conditions: for GI50: CCRF-CEM, Leukemia
NCI-H460 = conditions: for GI50: NCI-H460, Lung Cancer
SNB-19 = conditions: for GI50: SNB-19, CNS Cancer
M14 = conditions: for GI50: M14, Melanoma
HS 578T = conditions: for GI50: HS 578T, Breast Cancer
NCI/ADR-RES = conditions: for GI50: NCI/ADR-RES, Ovarian Cancer
HCT-15 = conditions: for GI50: HCT-15, Colon Cancer
BT-549 = conditions: for GI50: BT-549, Breast Cancer
KM12 = conditions: for GI50: KM12, Colon Cancer
OVCAR-8 = conditions: for GI50: OVCAR-8, Ovarian Cancer
NCI-H522 = conditions: for GI50: NCI-H522, Lung Cancer
RPMI-8226 = conditions: for GI50: RPMI-8226, Leukemia
MDA-MB-231/ATCC = conditions: for GI50: MDA-MB-231/ATCC, Breast Cancer
ACHN = test: NCI 60-cell line five dose screen: ACHN; conditions: Renal Cancer
MALME-3M = conditions: for GI50: MALME-3M, Melanoma
NCI-H23 = conditions: for GI50: NCI-H23, Lung Cancer
MCF7 = conditions: for GI50: MCF7, Breast Cancer
A498 = conditions: for GI50: A498, Renal Cancer
K-562 = conditions: for GI50: K-562, Leukemia

13-(2-iodoimidazole)parthenolide [PNR-5-65]
CC50 (SF-295): > 100 µM | GI50 (SF-295): 32.1 µM | CC50 (OVCAR-4): 60 µM | GI50 (OVCAR-4): 13.2 µM | CC50 (SW-620): 62.8 µM | GI50 (SW-620): 11.4 µM | CC50 (PC-3): > 100 µM | GI50 (PC-3): 23.1 µM | CC50 (SNB-75): > 100 µM | GI50 (SNB-75): 19.3 µM | CC50 (UO-31): 50 µM | GI50 (UO-31): 10.8 µM | CC50 (CCRF-CEM): 79.6 µM | GI50 (CCRF-CEM): 6.13 µM | CC50 (NCI-H460): > 100 µM | GI50 (NCI-H460): 30.1 µM | CC50 (SNB-19): > 100 µM | GI50 (SNB-19): > 100 µM | CC50 (M14): 65.6 µM | GI50 (M14): 16.5 µM | CC50 (HS 578T): > 100 µM | GI50 (HS 578T): 21.3 µM | CC50 (NCI/ADR-RES): > 100 µM | GI50 (NCI/ADR-RES): 31.2 µM | CC50 (HCT-15): 55.6 µM | GI50 (HCT-15): 10.7 µM | CC50 (BT-549): 55.3 µM | GI50 (BT-549): 15.9 µM | CC50 (KM12): > 100 µM | GI50 (KM12): 43.2 µM | CC50 (OVCAR-8): 59.9 µM | GI50 (OVCAR-8): 16.6 µM | CC50 (NCI-H522): 6.34 µM | GI50 (NCI-H522): 1.77 µM and 1.71 µM | CC50 (RPMI-8226): > 100 µM | GI50 (RPMI-8226): 17 µM | CC50 (MDA-MB-231/ATCC): 59.6 µM | GI50 (MDA-MB-231/ATCC): 16.4 µM | GI50 (ACHN): 10.5 µM | CC50 (MALME-3M): 62.7 µM | GI50 (MALME-3M): 10.9 µM | CC50 (NCI-H23): > 100 µM | GI50 (NCI-H23): 23.7 µM | CC50 (MCF7): > 100 µM | GI50 (MCF7): 9.79 µM | CC50 (A498): > 100 µM | GI50 (A498): 45.2 µM | CC50 (K-562): 90 µM | GI50 (K-562): 7.36 µM

(E)-13-(3-thiopheno)parthenolide [PNR-5-53]
CC50 (SF-295): > 100 µM | GI50 (SF-295): 28.5 µM | CC50 (OVCAR-4): > 100 µM | GI50 (OVCAR-4): 24.3 µM | CC50 (SW-620): > 100 µM | GI50 (SW-620): 22.9 µM | CC50 (PC-3): > 100 µM | GI50 (PC-3): 22.7 µM | CC50 (SNB-75): > 100 µM | GI50 (SNB-75): 21.5 µM | CC50 (UO-31): > 100 µM | GI50 (UO-31): 27.3 µM | CC50 (CCRF-CEM): > 100 µM | GI50 (CCRF-CEM): 19.1 µM | CC50 (NCI-H460): > 100 µM | GI50 (NCI-H460): 29.3 µM | CC50 (SNB-19): > 100 µM | GI50 (SNB-19): 47.6 µM | CC50 (M14): > 100 µM | GI50 (M14): 20.5 µM | CC50 (HS 578T): > 100 µM | GI50 (HS 578T): 21.5 µM | CC50 (NCI/ADR-RES): > 100 µM | GI50 (NCI/ADR-RES): 23.6 µM | CC50 (HCT-15): > 100 µM | GI50 (HCT-15): 22.6 µM | CC50 (BT-549): 88.2 µM | GI50 (BT-549): 20.1 µM | CC50 (KM12): 86.7 µM | GI50 (KM12): 20.4 µM | CC50 (OVCAR-8): > 100 µM | GI50 (OVCAR-8): 26.9 µM | CC50 (NCI-H522): 59.7 µM | GI50 (NCI-H522): 5.44 µM | CC50 (RPMI-8226): > 100 µM | GI50 (RPMI-8226): 19.7 µM | CC50 (MDA-MB-231/ATCC): 81.8 µM | GI50 (MDA-MB-231/ATCC): 16 µM | GI50 (ACHN): 32.8 µM | CC50 (MALME-3M): > 100 µM | GI50 (MALME-3M): 22.5 µM | CC50 (NCI-H23): > 100 µM | GI50 (NCI-H23): 23 µM | CC50 (MCF7): > 100 µM | GI50 (MCF7): 20 µM | CC50 (A498): > 100 µM | GI50 (A498): 17.5 µM | CC50 (K-562): > 100 µM | GI50 (K-562): 25.2 µM
